The subject of this test is Staphylococcus epidermidis ATCC 35984. Put plainly: Minimum inhibitory concentration (MIC) assay, Staphylococcus epidermidis ATCC 35984. It counts as cell-based. Particulars: ATCC35984, aerobic culture 35+/-2°C, 16 to 20 hours, read with naked eyes. As for the experimental part: On the day of the experiment, the compound in the flask was dissolved in 100% DMSO until the concentration of mother liquor was 0.4 mg/mL. If the mother liquor was not used on the same day, it was stored at −80° C. for future use.
The compound mother liquor and standard antibiotics were subjected to 2-fold gradient dilution with corresponding solvents on a 96-microwell plate (V-bottom) to obtain 100× working solutions (Well 1 to Well 7) in sequence. Among them, the concentrations of the compound were 400 μg/mL, 200 μg/mL, 100 μg/mL, 50 μg/mL, 25 μg/mL, 12.5 μg/mL, 6.25 μg/mL, and 3.125 μg/mL. 100% DMSO was used as growth control (Well 8). As such, the compound motherplate was obtained.
One day before the experiment, aerobic bacteria (Staphylococcus epidermidis) stored in a cryogenic tube at −80° C. were scribed on an MHA (Cation-adjusted Mueller-Hinton agar) plate. The aerobic bacteria were placed in a 35+/−2° C. incubator for 18-24 hours of aerobic cultivation.
On the day of the experiment, the plate was taken out, clones were picked from the plate and suspended in physiological saline. Then, the turbidity of the bacterial suspension (containing 1.0-2.0×10^8 CFU/mL) was adjusted to OD600=0.2 by a turbidity meter. Then, the adjusted bacterial suspension was diluted to an appropriate concentration with the assay culture medium: about 5×10^5 CFU/mL for aerobic bacteria, and about 1×10^6 CFU/mL for anaerobic bacteria. As such, the inoculating solution was obtained.
2 μl of 2-fold series dilution of 100× high-concentration working solution was transferred from a compound mother plate (prepared in step 1) to a round-bottom 96-well plate, and then 198 μL of bacterial inoculating solution (prepared in step 2) was added to each well to obtain an MIC assay plate. Therefore, the final assay concentrations of the compound were 4 μg/mL, 2 μg/mL, 1 μg/mL, 0.5 μg/mL, 0.25 μg/mL, 0.125 μg/mL, 0.06 μg/mL and 0.03 μg/mL. The total volume of each well on the assay plate was 200 μL: containing 1% DMSO, about 5×10^5 CFU/mL of aerobic bacteria and about 1×10^6 CFU/mL of anaerobic bacteria.
All assay plates for aerobic bacteria were aerobically cultured at 35+/−2° C. for 16 to 20 hours, and all assay plates for anaerobic bacteria were anaerobically cultured in an anaerobic incubator at 35+/−2° C. for 48 hours.

A word on the MIC: it is the smallest concentration in the dilution series that meets the test's criterion for growth inhibition.

SMILES strings stand for the structures. Values after ≈ are worked out from the molar mass of the structure shown.

With `CN(C)c1cc2c(cn1)-c1ccc3c(=O)c(C(=O)O)cn(C4CC4)c3c1COC2` [Compound 6], the MIC worked out at 0.06 µg/mL (≈ 0.153 µM).

The record behind these values is US20250042912A1, “NOVEL NON-FLUORINATED QUINOLONE COMPOUND AND USE THEREOF” (priority 2021, published 2025).
